From patent publication US8309766B2 (Obschestvo S. Organichennoi Otvetstvennostiyu …, priority 2005, dated 2012)
Where two headings read alike, the source gives them in different places.

Columns and labels:
[1] = system: mice, forced swimming; assay: "Behavioral despair" test according to Porsolt; type: in vivo; conditions: 50 mg/kg orally
Procedure: The “behavioral despair” test according to Porsolt [R. D. Porsolt, A. Bertin and M. Jalfre.//in mice: A primary Screening Test for Antidepressants. Arch. Int. Pharmacodyn., 1977, 229, p. 327-336] is a predictive test for drugs with antidepressant action.
Stress state in mice (weighing 27-30 grams) is induced by forced swimming. Animals are placed into a cylinder (height 25 cm, diameter 10 cm) filled to ⅓ with water at temperature 21-23° C. The animals cannot escape from the cylinder by themselves. Following a short time of activity the animals develop a so called “behavioral depression” characterized by hovering of animals, immobilization duration of which can be fixed. The experiment is carried out in two days. One a first day, animals are placed into the cylinder for 15 minutes (pre-test). After removal from water, the animals are dried and preparations under testing are administered. At 24 hours, the preparations are administered again and one hour later the animals are placed into the cylinder for 6 minutes. During first two minutes the animals are actively swimming; during the subsequent four minutes, behavioral depression develops manifested by immobilization (hovering) which is fixed for 4 minutes and is measure in seconds. Compound IX and the reference antidepressant drug Fluoxetin were administered orally at a dose 50 mg/kg.

[2] = system: carrageenan edema of rat paw; assay: Carrageenan edema of rat paw; type: in vivo, outbreed white rats; conditions: rats; 1% ointment; 4 hours post carrageenan
Procedure: The tests were conducted on males of outbreed white rats weighing 250-270 grams. The model of carrageenan edema was used which model is described in Winter et al. In: DeRosa M., Giroud J. P. Willoughby D. A. Studies of the mediators of acute inflammatory response induced in rats in different sites by carrageenan and turpentine.//J. Pharmacol. 1971. V. 104. P. 15-29.
0.1 ml 1% carrageenan solution (SERVA) was subplantarly injected into a right paw of rats. The animals were placed into individual chambers. […] Paw volume was measured using a pletismometer (Ugo Besile) at 4 hours post carrageenan administration. Therapeutic effect of the ointment was assessed by the inhibition degree of inflammatory reaction as compared to an intact left paw of the given animal and to a paw reaction of a control (untreated) group of rats. Inhibition of inflammatory reaction expressed in percent was calculated according to the formula: […]

[3] = system: "hot plate" test in mice; assay: Analgetic activity on the model "hot plate"; type: in vivo, white mongrel mice; conditions: 10 mg/kg; for response vs control in vivo at 10 mg/kg / change in vivo at 10 mg/kg: Mus musculus; for response vs control in vivo at 10 mg/kg: percent of background, read-out: Latent time of NT (%); for change in vivo at 10 mg/kg: read-out: Analgesia (%)
[4] = system: mice in the model of hypoxic hypoxia with hypercapnia; assay: Hypoxic hypoxia with hypercapnia in a hermetic volume; type: in vivo; conditions: for Duration of hypoxia (life span), M ± m: control 25.6 ± 0.6
Text: In order to imitate acute oxygen insufficiency the hypoxia model with hypercapnia in a hermetic volume was used (Luk'yanova L. D., Gatsura V. V., Pastushenkov L. V. Metodicheskiye recomendatsii po experimental'nomu izucheniju preparatov, predlagajemykh dlya klinicheskogo isuchenija v kachestve antihypoxicheskikh sredsyv (Methodological recommendations on experimental study of preparations proposed for clinical examination as anti-hypoxic agents). Moscow. 1960. P. 1-19]. […] weighing 27-29 grams were individually placed into 260 ml glass jars which were hermetically closed. As the animals consume oxygen, its concentration in the vessel lowers that results in death of the animals. Life span of the mice in minutes was recorded.

[5] = system: "acetic contortions" in mice; assay: Effect on analgetic action of Tramal and Analgin on the model "acetic contortions"; type: in vivo, white mongrel mice
Procedure: The tests were conducted on males of white mongrel mice weighing 22-24 grams. The specific pain response (“contortions”) were elicited by intraperitoneal administration to mice of 0.75% acetic acid solution. The following signs were taken into consideration: the number of seizure contractions of abdominal muscles accompanied by stretching the hind limbs and sagging the back. Analgetic effect was assessed by decrease in the number of contortions in animals in percent to the control for 15 minutes post administration of acetic acid. The technique of the tests is disclosed in Koster R., Anderson M., de Beer B.//Fed. Proc. 1959. V. 18. P. 412. Compounds under testing were administered intraperitoneally (using a probe) at a dose 10 μg/kg 60 minutes prior to injection of the acid. Diclofenac (10 mg/kg) was used as a reference drug. Analgetic effect was calculated according to the formula: […]
The studies were carried out in accordance with the technique presented in Example 18.

[6] = system: gastric mucosa of rats; assay: Ulcerogenic effect on gastric mucosa; type: in vivo, outbreed rats; conditions: 30 mg/kg once intragastrally, at 24 hours, M ± m
Procedure: The tests were carried out on females of outbreed rats weighing 300-320 grams. The compounds tested were administered once intragastrally at a dose 30 mg/kg to rats deprived of feed for 24 hours prior to the test. Animals in the control group were administered distilled water in the same volume. At 24 hours the animals were sacrificed and stomachs were extracted. An empty stomach was filled with 2% formalin solution and it was placed into a beaker with formalin. 30 minutes later, the stomach was opened along the great curvature, expanded on a slide, fixed and washed with distilled water. Using the magnifying glass MBS-9 (8-fold magnification) length and width of gastric mucosa defects was measured and area in mm^2 was calculated (1 division of the magnifying glass ruler=0.1 mm). Ulcerogenic effect of a substance was assessed by ulcerous lesion area of gastric mucosa according to the technique presented in Rukovodstvo po experimental'nomu (doklinicheskomu) izucheniju novykh pharmacologicheskikh veshchestv (the Guide on Experimental (pre-clinical) Study of Novel Pharmacological Substances)./Moscow. “Remedium” publishers. 2000, 398 pages.

[7] = IX 10 mg/kg alone (Analgin study)

## O=C(CCc1ccc(O)cc1)NCCc1ccccc1 [Compound IX, 3-(p-hydroxyphenyl)-propionylphenylethylamine]
[1]
  % change from the control: −21%
[1]; fixed for 4 minutes, control 195.0 ± 10.3
  immobilization time, M ± m: 154.0 ± 11.7 s
[2]
  Edema inhibition (%): 53.1%
  Paw volume gain (%): 32.9%
[3]; 30 minutes post administration
  latent time of nociception threshold, M ± m: 8.4 ± 1.23 s
[3]; 60 minutes post administration
  latent time of nociception threshold, M ± m: 7.36 ± 1.04 s
[3]; 120 minutes post administration
  latent time of nociception threshold, M ± m: 9.83 ± 2.52 s
[3]; 240 minutes post administration
  latent time of nociception threshold, M ± m: 7.72 ± 0.24 s
[3]; 0.5 h, 30 minutes
  response vs control in vivo at 10 mg/kg: 203%
  change in vivo at 10 mg/kg: 103%
[3]; 1 h, 60 minutes
  response vs control in vivo at 10 mg/kg: 178%
  change in vivo at 10 mg/kg: 77.8%
[3]; 2 h, 120 minutes
  response vs control in vivo at 10 mg/kg: 237%
  change in vivo at 10 mg/kg: 137%
[3]; 4 h, 240 minutes
  response vs control in vivo at 10 mg/kg: 186%
  change in vivo at 10 mg/kg: 86.5%
[4]; 10 mg/kg
  % change from the control: 0%
  Duration of hypoxia (life span), M ± m: 25.3 ± 0.8 min
[4]; 50 mg/kg
  Duration of hypoxia (life span), M ± m: 32.6 ± 2.6 min
[5]; [7]
  Analgetic effect, %: 43.3%
  Number of contortions for 15 minutes, M ± m: 18.8 ± 3.1
[5]; IX 10 mg/kg, Tramal 10 mg/kg, alone or combined
  Analgetic effect, %: 33.6%
[6]
  Area of ulcerous lesion: 0 mm^2
